Source: PubChem BioAssay (NCI)
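Here, GI50 denotes the concentration required for 50% inhibition of growth. TGI denotes the concentration required for complete inhibition of growth.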

Tests used:
Assay in all cases: NCI tumour cell line growth inhibition, 384-well format
[1] = tested on: MALME-3M melanoma
[2] = tested on: NCI-H23 lung
[3] = tested on: PC-3 prostate
[4] = tested on: SNB-75 CNS
[5] = tested on: SF-295 CNS
[6] = tested on: SK-OV-3 ovarian
[7] = tested on: MDA-MB-468 breast
[8] = tested on: HT29 colon
[9] = tested on: SF-268 CNS
[10] = tested on: NCI-H226 lung
[11] = tested on: A549 NSCLC
[12] = tested on: EKVX NSCLC
[13] = tested on: CAKI-1 renal
[14] = tested on: HS 578T breast
[15] = tested on: MDA-MB-435 melanoma
[16] = tested on: UACC-62 melanoma
[17] = tested on: M14 melanoma
[18] = tested on: A498 renal
[19] = tested on: HOP-62 NSCLC
[20] = tested on: OVCAR-3 ovarian
[21] = tested on: KM12 colon
[22] = tested on: ACHN renal
[23] = tested on: SK-MEL-5 melanoma
[24] = tested on: SW-620 colon
[25] = tested on: MDA-MB-231 breast
[26] = tested on: RXF 393 renal
[27] = tested on: U251 glioblastoma
[28] = tested on: NCI-H522 lung
[29] = tested on: OVCAR-8 ovarian
[30] = tested on: HCT-15 colon
[31] = tested on: RPMI-8226 leukemia
[32] = tested on: LOX IMVI melanoma
[33] = tested on: UACC-257 melanoma
[34] = tested on: SNB-19 CNS
[35] = tested on: NCI-H460 NSCLC
[36] = tested on: NCI/ADR-RES ovarian
[37] = tested on: OVCAR-5 ovarian
[38] = tested on: MOLT-4 leukemia
[39] = tested on: SK-MEL-28 melanoma
[40] = tested on: 786-0 renal
[41] = tested on: IGROV1 ovarian
[42] = tested on: UO-31 renal
[43] = tested on: HCT-116 colon
[44] = tested on: HCC-2998 colon
[45] = tested on: SK-MEL-2 melanoma
[46] = tested on: HL-60(TB) leukemia
[47] = tested on: OVCAR-4 ovarian
[48] = tested on: CCRF-CEM leukemia
[49] = tested on: TK-10 renal
[50] = tested on: COLO 205 colon
[51] = tested on: HOP-92 NSCLC
[52] = tested on: SF-539 CNS
[53] = tested on: NCI-H322M lung
[54] = tested on: MCF7 breast
[55] = tested on: BT-549 breast
[56] = tested on: K-562 leukemia
[57] = tested on: DU-145 prostate
[58] = tested on: SN12C renal
[59] = tested on: T-47D breast

Q: For C#CC(F)(F)[C@]1(O)CC[C@H]2[C@@H]3CCC4=CC(=O)CCC4=C3[C@@H](c3ccc(C4CC4)cc3)C[C@@]21C, which GI50 [1] is on record?
A: Its GI50 is < 10 nM.

Q: What about the TGI [1] of the same molecule?
A: Its TGI is < 10 nM.

Q: What about the GI50 [2] of the same molecule?
A: The GI50 was < 10 nM.

Q: What about the TGI [2] of the same molecule?
A: The TGI was < 10 nM.

Q: And the GI50 [3]?
A: The GI50 was 19.6 nM.

Q: And the TGI [3]?
A: The TGI was 51.8 nM.

Q: What about the GI50 [4] of the same molecule?
A: The GI50 was 14.2 nM.

Q: What about the TGI [4] of the same molecule?
A: Its TGI is 28.2 nM.

Q: What about the GI50 [5] of the same molecule?
A: The GI50 was 30.2 nM.

Q: And the TGI [5]?
A: Its TGI is 83.4 nM.

Q: What about the GI50 [6] of the same molecule?
A: Its GI50 is 34.2 nM.

Q: What about the TGI [6] of the same molecule?
A: Its TGI is 111 nM.

Q: And the GI50 [7]?
A: Its GI50 is < 10 nM.

Q: And the TGI [7]?
A: The TGI was < 10 nM.

Q: And the GI50 [8]?
A: Its GI50 is 267 nM.

Q: And the TGI [8]?
A: Its TGI is 1180 nM.

Q: What about the GI50 [9] of the same molecule?
A: Its GI50 is 11.2 nM.

Q: What about the TGI [9] of the same molecule?
A: The TGI was 25.8 nM.

Q: And the GI50 [10]?
A: Its GI50 is 218 nM.

Q: And the TGI [10]?
A: The TGI was 2000 nM.

Q: What about the GI50 [11] of the same molecule?
A: The GI50 was 39.5 nM.

Q: What about the TGI [11] of the same molecule?
A: Its TGI is 190 nM.

Q: And the GI50 [12]?
A: The GI50 was < 10 nM.

Q: What about the TGI [12] of the same molecule?
A: Its TGI is 10.9 nM.

Q: What about the GI50 [13] of the same molecule?
A: The GI50 was < 10 nM.

Q: And the TGI [13]?
A: Its TGI is < 10 nM.

Q: And the GI50 [14]?
A: The GI50 was 377 nM.

Q: What about the TGI [14] of the same molecule?
A: The TGI was 1510 nM.

Q: And the GI50 [15]?
A: Its GI50 is 1250 nM.

Q: And the TGI [15]?
A: The TGI was 3510 nM.

Q: And the GI50 [16]?
A: Its GI50 is 17.6 nM.

Q: And the TGI [16]?
A: The TGI was 32.8 nM.

Q: And the GI50 [17]?
A: The GI50 was 37.6 nM.

Q: What about the TGI [17] of the same molecule?
A: Its TGI is 146 nM.

Q: What about the GI50 [18] of the same molecule?
A: Its GI50 is 13.2 nM.

Q: What about the TGI [18] of the same molecule?
A: The TGI was 26.1 nM.

Q: And the GI50 [19]?
A: Its GI50 is < 10 nM.

Q: And the TGI [19]?
A: The TGI was 41.1 nM.

Q: And the GI50 [20]?
A: Its GI50 is < 10 nM.

Q: And the TGI [20]?
A: The TGI was < 10 nM.

Q: And the GI50 [21]?
A: The GI50 was 12 nM.

Q: What about the TGI [21] of the same molecule?
A: The TGI was 25.5 nM.

Q: And the GI50 [22]?
A: The GI50 was < 10 nM.

Q: What about the TGI [22] of the same molecule?
A: The TGI was < 10 nM.

Q: And the GI50 [23]?
A: Its GI50 is 1700 nM.

Q: What about the TGI [23] of the same molecule?
A: The TGI was 3100 nM.

Q: And the GI50 [24]?
A: Its GI50 is 334 nM.

Q: What about the TGI [24] of the same molecule?
A: The TGI was 1390 nM.

Q: What about the GI50 [25] of the same molecule?
A: The GI50 was < 10 nM.

Q: What about the TGI [25] of the same molecule?
A: Its TGI is < 10 nM.

Q: What about the GI50 [26] of the same molecule?
A: The GI50 was < 10 nM.

Q: What about the TGI [26] of the same molecule?
A: Its TGI is < 10 nM.

Q: What about the GI50 [27] of the same molecule?
A: Its GI50 is 97.5 nM.

Q: And the TGI [27]?
A: Its TGI is 444 nM.

Q: What about the GI50 [28] of the same molecule?
A: The GI50 was < 10 nM.

Q: What about the TGI [28] of the same molecule?
A: The TGI was < 10 nM.

Q: What about the GI50 [29] of the same molecule?
A: Its GI50 is 61.6 nM.

Q: What about the TGI [29] of the same molecule?
A: The TGI was 934 nM.

Q: And the GI50 [30]?
A: The GI50 was 245 nM.

Q: And the TGI [30]?
A: The TGI was 2300 nM.

Q: What about the GI50 [31] of the same molecule?
A: The GI50 was < 10 nM.

Q: And the TGI [31]?
A: The TGI was 18.6 nM.

Q: What about the GI50 [32] of the same molecule?
A: The GI50 was < 10 nM.

Q: And the TGI [32]?
A: Its TGI is < 10 nM.

Q: And the GI50 [33]?
A: Its GI50 is 459 nM.

Q: What about the TGI [33] of the same molecule?
A: Its TGI is 2110 nM.

Q: What about the GI50 [34] of the same molecule?
A: The GI50 was 3020 nM.

Q: And the TGI [34]?
A: The TGI was 8610 nM.

Q: And the GI50 [35]?
A: The GI50 was 1850 nM.

Q: And the TGI [35]?
A: The TGI was 3410 nM.

Q: What about the GI50 [36] of the same molecule?
A: Its GI50 is 12 nM.

Q: And the TGI [36]?
A: Its TGI is 44.8 nM.

Q: What about the GI50 [37] of the same molecule?
A: The GI50 was 574 nM.

Q: What about the TGI [37] of the same molecule?
A: Its TGI is 2410 nM.

Q: What about the GI50 [38] of the same molecule?
A: The GI50 was 17.4 nM.

Q: What about the TGI [38] of the same molecule?
A: Its TGI is 31.6 nM.

Q: And the GI50 [39]?
A: The GI50 was 2030 nM.

Q: And the TGI [39]?
A: The TGI was 4340 nM.

Q: And the GI50 [40]?
A: The GI50 was 10.7 nM.

Q: And the TGI [40]?
A: Its TGI is 24 nM.

Q: What about the GI50 [41] of the same molecule?
A: Its GI50 is < 10 nM.

Q: And the TGI [41]?
A: The TGI was < 10 nM.

Q: What about the GI50 [42] of the same molecule?
A: Its GI50 is < 10 nM.

Q: And the TGI [42]?
A: The TGI was < 10 nM.

Q: And the GI50 [43]?
A: Its GI50 is 1760 nM.

Q: And the TGI [43]?
A: The TGI was 3350 nM.

Q: What about the GI50 [44] of the same molecule?
A: Its GI50 is 23.9 nM.

Q: What about the TGI [44] of the same molecule?
A: Its TGI is 50.7 nM.

Q: And the GI50 [45]?
A: Its GI50 is 64.6 nM.

Q: What about the TGI [45] of the same molecule?
A: Its TGI is 244 nM.

Q: What about the GI50 [46] of the same molecule?
A: The GI50 was < 10 nM.

Q: And the TGI [46]?
A: The TGI was < 10 nM.

Q: And the GI50 [47]?
A: The GI50 was < 10 nM.

Q: And the TGI [47]?
A: Its TGI is < 10 nM.

Q: What about the GI50 [48] of the same molecule?
A: Its GI50 is < 10 nM.

Q: And the TGI [48]?
A: Its TGI is < 10 nM.

Q: And the GI50 [49]?
A: The GI50 was 21.4 nM.

Q: And the TGI [49]?
A: The TGI was 104 nM.

Q: What about the GI50 [50] of the same molecule?
A: The GI50 was 1320 nM.

Q: What about the TGI [50] of the same molecule?
A: The TGI was 4580 nM.

Q: What about the GI50 [51] of the same molecule?
A: Its GI50 is < 10 nM.

Q: What about the TGI [51] of the same molecule?
A: Its TGI is < 10 nM.

Q: What about the GI50 [52] of the same molecule?
A: Its GI50 is 17.2 nM.

Q: What about the TGI [52] of the same molecule?
A: The TGI was 32 nM.

Q: And the GI50 [53]?
A: Its GI50 is 2480 nM.

Q: What about the TGI [53] of the same molecule?
A: The TGI was 6890 nM.

Q: And the GI50 [54]?
A: The GI50 was 1480 nM.

Q: And the TGI [54]?
A: The TGI was 7970 nM.

Q: And the GI50 [55]?
A: The GI50 was 20.3 nM.

Q: What about the TGI [55] of the same molecule?
A: The TGI was 42.2 nM.

Q: And the GI50 [56]?
A: The GI50 was 111 nM.

Q: And the TGI [56]?
A: Its TGI is 320 nM.

Q: And the GI50 [57]?
A: Its GI50 is 1540 nM.

Q: And the TGI [57]?
A: Its TGI is 3180 nM.

Q: What about the GI50 [58] of the same molecule?
A: The GI50 was 2010 nM.

Q: And the TGI [58]?
A: The TGI was 4060 nM.

Q: What about the GI50 [59] of the same molecule?
A: The GI50 was 80.6 nM.

Q: And the TGI [59]?
A: The TGI was 1770 nM.
